One experiment deals with hMC3R (Homo sapiens, UniProt P41968). The experiment can be described thus: cAMP AlphaScreen agonist assay, hMC3R. Particulars: hMC3R; up to 100 μM; HEK293 cells, cAMP.
Experiment [1] addresses T1, hMC4R (Homo sapiens, UniProt P32245). Description: Competitive displacement binding, [125I]-NDP-MSH, hMC4R.
A further experiment concerns the target mMC1R (Mus musculus, UniProt Q01727). Description: cAMP AlphaScreen agonist assay, mMC1R. Particulars: mMC1R; up to 100 μM; HEK293 cells, cAMP. Background: Bead proximity is the source of the signal in Alpha formats.
For a further experiment, the target named is mMC5R (Mus musculus, UniProt P41149). Description: cAMP AlphaScreen agonist assay, mMC5R. Particulars: mMC5R; up to 100 μM; HEK293 cells, cAMP.
Sequence of mMC5R (P41149 whole entry): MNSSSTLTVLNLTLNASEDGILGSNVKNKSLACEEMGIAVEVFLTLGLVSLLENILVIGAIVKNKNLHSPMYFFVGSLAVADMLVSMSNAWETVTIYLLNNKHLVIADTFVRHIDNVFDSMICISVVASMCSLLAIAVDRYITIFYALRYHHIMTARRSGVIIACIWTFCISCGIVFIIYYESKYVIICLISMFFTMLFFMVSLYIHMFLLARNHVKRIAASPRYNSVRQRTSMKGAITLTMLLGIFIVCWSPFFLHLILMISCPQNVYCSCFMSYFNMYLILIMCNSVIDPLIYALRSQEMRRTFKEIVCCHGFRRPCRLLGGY
Experiment [2] has as its target T1, hMC4R. Description: cAMP AlphaScreen agonist assay, hMC4R. Particulars: hMC4R; up to 100 μM; HEK293 cells, cAMP.
The next experiment concerns the target hMC5R (Homo sapiens, UniProt P33032). Description: cAMP AlphaScreen agonist assay, hMC5R. Particulars: hMC5R; up to 100 μM; HEK293 cells, cAMP.
A further experiment has as its system mice. Description: Fasting feeding paradigm after central administration in cannulated male mice. The experiment is classed as in vivo, mouse. Particulars: 100 μg at start of 22 h fast, vs saline.
Experiment [3] concerns the target T2, hMC1R (Homo sapiens, UniProt Q01726). Description: cAMP AlphaScreen agonist assay, hMC1R. The conditions noted are these: hMC1R; up to 100 μM; HEK293 cells, cAMP.
A further experiment has as its target mMC4R (Mus musculus, UniProt P56450). The experiment can be described thus: Competitive displacement binding, [125I]-NDP-MSH, mMC4R. Particulars: HEK293 cells.
A further experiment has as its target mMC3R (Mus musculus, UniProt P33033). Description: cAMP AlphaScreen agonist assay, mMC3R. The conditions noted are these: up to 100 μM, HEK293 cells.
The target in experiment [4] is T2, hMC1R. Description: Competitive displacement binding, [125I]-NDP-MSH, hMC1R. The conditions noted are these: HEK293 cells.
Experiment [5] concerns the target T2, hMC1R. The conditions noted are these: human MC1R; HEK293 cells; cited from earlier work.
The test system of experiment [6] is MC1R. The conditions noted are these: primary melanocytes, cited from earlier work.
Experiment [7] relates to male Wistar rats. The conditions noted are these: 7 μg (1.2 nmol) ICV at the onset of a 24 h fast, vs vehicle; cited from earlier work.
Experiment [8] concerns the target T2, hMC1R. The conditions noted are these: transiently transfected HEK293 cells, Eu-NDP-MSH, 2 h incubation; cited from earlier work.
Experiment [9] concerns male Wistar rats. Particulars: ad libitum; adult male Wistar rats; up to 2 nmol; cited from earlier work.
Experiment [10] deals with MC1R. Particulars: B16 cells, cited from earlier work.
The target of experiment [11] is T1, hMC4R. Particulars: transiently transfected HEK293 cells, Eu-NDP-MSH, 2 h incubation; cited from earlier work.
Experiment [12] deals with MC1R. Particulars: cited from earlier work.

Entries after “also recorded” stand apart in the source; their conditions may differ. Like-named read-outs stand apart in the source and are kept apart here. Bridge positions count the residues as written; N and C are the ends. Ends that are not written are not given here. Peptide text beside a SMILES is read from it.

Sequence of mMC1R (Q01727 whole entry): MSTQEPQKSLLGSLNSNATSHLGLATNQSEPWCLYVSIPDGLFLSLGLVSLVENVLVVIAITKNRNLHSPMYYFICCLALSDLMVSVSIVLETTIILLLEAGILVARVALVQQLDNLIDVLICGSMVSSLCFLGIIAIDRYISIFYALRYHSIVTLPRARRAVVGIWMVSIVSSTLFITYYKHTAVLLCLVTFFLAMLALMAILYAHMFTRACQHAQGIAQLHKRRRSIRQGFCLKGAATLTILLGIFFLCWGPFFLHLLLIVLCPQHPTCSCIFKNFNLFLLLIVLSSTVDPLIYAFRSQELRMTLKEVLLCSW
T2 sequence (Q01726 whole entry): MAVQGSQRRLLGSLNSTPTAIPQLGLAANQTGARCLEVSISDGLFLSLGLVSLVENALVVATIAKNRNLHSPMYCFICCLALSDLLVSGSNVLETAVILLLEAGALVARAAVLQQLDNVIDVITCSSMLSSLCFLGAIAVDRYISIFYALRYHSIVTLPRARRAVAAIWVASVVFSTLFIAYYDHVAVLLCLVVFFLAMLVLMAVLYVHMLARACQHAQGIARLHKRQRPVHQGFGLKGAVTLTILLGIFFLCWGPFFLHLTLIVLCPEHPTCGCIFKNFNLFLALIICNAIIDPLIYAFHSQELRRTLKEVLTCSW
T1 sequence (P32245 whole entry): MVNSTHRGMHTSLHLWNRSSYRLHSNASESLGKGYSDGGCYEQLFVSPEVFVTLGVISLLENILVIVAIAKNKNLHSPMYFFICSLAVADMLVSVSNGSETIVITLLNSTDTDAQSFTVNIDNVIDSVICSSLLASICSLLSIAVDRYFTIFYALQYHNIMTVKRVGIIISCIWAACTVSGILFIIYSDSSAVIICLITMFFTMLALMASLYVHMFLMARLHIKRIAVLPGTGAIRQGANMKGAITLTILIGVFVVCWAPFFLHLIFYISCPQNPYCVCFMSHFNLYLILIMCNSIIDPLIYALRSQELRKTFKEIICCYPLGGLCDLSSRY
Sequence of hMC3R (P41968 whole entry): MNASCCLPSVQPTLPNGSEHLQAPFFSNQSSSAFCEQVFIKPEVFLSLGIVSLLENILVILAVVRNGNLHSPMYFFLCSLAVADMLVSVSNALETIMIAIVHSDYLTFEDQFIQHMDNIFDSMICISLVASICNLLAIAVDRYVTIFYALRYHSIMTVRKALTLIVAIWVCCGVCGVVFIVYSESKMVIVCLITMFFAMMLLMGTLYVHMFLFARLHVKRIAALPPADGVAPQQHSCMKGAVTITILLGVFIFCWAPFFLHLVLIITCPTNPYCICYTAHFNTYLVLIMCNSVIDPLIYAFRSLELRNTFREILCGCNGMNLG
Sequence of mMC3R (P33033 whole entry): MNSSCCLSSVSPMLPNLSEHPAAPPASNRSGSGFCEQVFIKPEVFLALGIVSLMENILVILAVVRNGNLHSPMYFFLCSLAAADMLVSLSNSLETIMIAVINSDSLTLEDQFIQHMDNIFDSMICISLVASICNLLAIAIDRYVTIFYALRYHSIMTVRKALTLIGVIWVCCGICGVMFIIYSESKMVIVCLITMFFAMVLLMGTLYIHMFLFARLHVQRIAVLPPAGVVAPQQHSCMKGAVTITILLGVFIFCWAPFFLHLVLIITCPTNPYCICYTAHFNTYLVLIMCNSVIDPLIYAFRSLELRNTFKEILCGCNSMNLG
Sequence of hMC5R (P33032 whole entry): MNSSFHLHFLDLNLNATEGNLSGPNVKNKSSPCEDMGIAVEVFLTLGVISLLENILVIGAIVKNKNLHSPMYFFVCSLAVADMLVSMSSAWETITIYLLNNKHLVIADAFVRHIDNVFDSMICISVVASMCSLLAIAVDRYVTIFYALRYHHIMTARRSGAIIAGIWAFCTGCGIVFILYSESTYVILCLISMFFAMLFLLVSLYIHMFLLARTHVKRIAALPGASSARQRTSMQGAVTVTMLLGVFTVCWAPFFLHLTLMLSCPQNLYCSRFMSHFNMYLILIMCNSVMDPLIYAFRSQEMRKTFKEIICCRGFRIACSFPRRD
Sequence of mMC4R (P56450 whole entry): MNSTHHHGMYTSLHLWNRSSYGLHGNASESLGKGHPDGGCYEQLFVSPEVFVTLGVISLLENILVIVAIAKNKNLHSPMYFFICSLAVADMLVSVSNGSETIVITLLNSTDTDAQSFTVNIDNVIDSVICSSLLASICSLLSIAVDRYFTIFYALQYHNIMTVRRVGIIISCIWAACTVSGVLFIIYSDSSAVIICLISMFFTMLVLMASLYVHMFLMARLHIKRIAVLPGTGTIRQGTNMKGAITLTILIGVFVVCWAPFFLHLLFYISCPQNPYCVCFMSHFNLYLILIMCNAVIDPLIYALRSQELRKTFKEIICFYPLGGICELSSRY

In the case of `CC(C)C[C@@H]1NC(=O)[C@@H]2CSSC[C@@H]3NC(=O)[C@H]([C@@H](C)O)NC(=O)CNC(=O)[C@H](CCC(N)=O)NC(=O)[C@H](CC(C)C)NC(=O)[C@H](CCCCN)NC(=O)[C@H]([C@@H](C)O)NC(=O)[C@H](CC(N)=O)NC(=O)[C@H](CO)NC(=O)[C@@H]4CCCN4C(=O)[C@H](CSSC[C@@H](C(=O)N[C@@H](CCCCN)C(=O)N[C@@H](CO)C(=O)O)NC(=O)[C@H](CSSC[C@H](NC(=O)[C@H](CCCCN)NC(=O)[C@H](Cc4ccc(O)cc4)NC(=O)[C@H](CCC(N)=O)NC(=O)[C@@H](N)CC(=O)O)C(=O)N[C@@H](CC(C)C)C(=O)N[C@@H](CCC(N)=O)C(=O)N[C@@H](Cc4c[nH]cn4)C(=O)NCC(=O)NCC(=O)N[C@@H](Cc4ccccc4)C(=O)N2)NC(=O)[C@H](CC(N)=O)NC(=O)[C@@H]2CCCN2C(=O)[C@H](CCCCN)NC(=O)[C@H](CC(=O)O)NC(=O)[C@@H]2CCCN2C(=O)[C@H](CCCCN)NC3=O)NC(=O)[C@H](CO)NC(=O)[C@H](CO)NC(=O)[C@H](CCCNC(=N)N)NC1=O` [mBD1] (H-DQYKCLQHGGFCLRSSCPSNTKLQGTCKPDKPNCCKS-OH; disulfide 5-34, 12-27, 17-35; N-terminus and C-terminus assumed), the “Agonist efficacy (in words)” value at hMC3R is “full agonist efficacy with micromolar potency”; on mMC1R it was “full agonist efficacy with micromolar potency”; at mMC5R it was “full agonist efficacy with micromolar potency”; on hMC4R [2], “full agonist efficacy with micromolar potency”; at hMC5R it was “no activity”; at hMC1R [3], “full agonist efficacy with micromolar potency”. In addition, at mMC3R, the “Agonist efficacy (in words)” value is “full agonist efficacy with micromolar potency”. Further, the “Displacement of radiolabeled NDP-MSH (in words)” value on hMC4R [1] (HEK293 cells), at mMC4R and at hMC1R [4] was “unable to displace” each time. In addition, the “Body weight, specific time points” value with mice is listed as “no significance was observed at specific time points”. The “Cumulative food intake, follow-up analysis at specific time points” value in the experiment with mice is “follow-up analysis did not result in significance at a specific time point”.
Consider “GIINTLQKYYCRVRGGRCAVLSCLPKEEQIGKCSTRGRKCCRRKK (disulfide 11-40, 18-33, 23-41) [hBD3]”, for which the Binding affinity on hMC1R [5] is given as 13.8 nM; on hMC1R [8], 42 nM; on hMC4R [11], 110 nM. For the same compound, in the experiment with MC1R [6] (100 nM), the “Effect on α-MSH induction of cAMP” value is “lower the agonist induction of cAMP”. Also, the cAMP signal result with MC1R [6] (up to 100 nM) and in the experiment with MC1R [10] (up to 100 nM) was “no cAMP signal” in each case. Moreover, the Body weight entry in the experiment with male Wistar rats [7] is reported as “decreased weight gain; also recorded: slower return to pre-fast weight”. Besides, the Food intake result with male Wistar rats [7] is on record as “decrease food intake; also recorded: significant decreases in food intake; also recorded: consumed less food”. At hMC4R [1] (100 μM, stably expressing HEK293 cells, 1 h incubation), the “Displacement of radiolabeled NDP-MSH at 100 μM” value was 50%. In addition, the “Agonist efficacy (in words)” value on mMC1R, at mMC5R, on hMC4R [2] and at hMC1R [3] was “Full agonist activity” throughout. Besides, the “Food intake or body weight change” value in the experiment with male Wistar rats [9] is “does not result in a statistical change in food intake or body weight change”. In addition, the “Effect on NDP-MSH induction of cAMP” value with MC1R [10] (100 nM) is reported as “lower the agonist induction of cAMP”; with MC1R [12] (HEK293 cells expressing the MC1R, 100 nM), “lower the agonist induction of cAMP”. Further, the “cAMP response vs maximal response of 1 nM NDP-MSH” value in the experiment with MC1R [12] (HEK293 cells expressing the MC1R, 300 nM) is “lower than the maximal response of 1 nM NDP-MSH”. Further, in the experiment on MC1R [12] (HEK293 cells, 100 and 300 nM), the cAMP levels result was “dose dependent increase in cAMP levels”.

The values above are taken from publication PMC6007841 (Journal of medicinal chemistry, 2018).
